Assay results reported in patent publication US6979665B2, “Agent for stimulation of the natural defences of plants and methods for using it” (Laboratoires Goemar S.A., priority 2002, dated 2005).
Entries after “also recorded” stand apart in the source; their conditions may differ.

How the values were obtained:
[1] = system: scopoletin; assay: Accumulation of total scopoletin in infiltrated tissues; assay type: in vivo, Nicotiana tabacum; conditions: variety Bel3, tissues sampled 3 days after infiltration (FIG. 6)
Excerpt: (§1) The stimulation, after infiltration with the here above defined compositions H11-C and H11-S of the accumulation of salicylic acid and of scopoletin in the varieties NN and Bel3 was then examined.
(§2) The results of these experiences appear on FIGS. 5 and 6, which respectively show the accumulation—expressed in μg respectively of salicylic acid and of scopoletin per gram of infiltrated tissues—of the total salicylic acid (free and conjugated forms) and of the total scopoletin (free and conjugated forms) determined on tissues on the varieties NN and Bel3 infiltrated as indicated here above on the one hand with water (C) as a control and on the other hand with compositions based on the fractions H11-C1 and H11-S containing respectively 200 mg/l of these fractions, the infiltrated tissues being sampled 3 days after the infiltration treatment.

[2] = system: cellular suspension of Nicotiana tabacum cv. Bright Yellow; assay: Alkalinisation test of the extracellular medium on cellular suspension; assay type: cell-based; conditions: after 10 minutes; 160 μl of 10 g/l composition added to 8 ml suspension, final concentration about 200 mg/l
Procedure: The cellular suspensions here above mentioned are suspensions obtained starting from the vegetal tissue of Nicotiana tabacum cv. Bright Yellow.
One of these experiences is consisting of the so-called alkalinisation test of the extracellular medium and the other of the so-called test of the refractory state.
In the case of the first test, the latter is carried out on a cellular suspension obtained starting from vegetable tissues of the variety Bright Yellow. To three 8 ml samples of that cellular suspension were added respectively 160 μl of three aqueous compositions respectively containing 10 g/l of the fractions H11-C1, I25 (oligofucanes) and H11-S, the final concentration in each of the oligosaccharides being equal to […].

[3] = system: OMT activity (orthodiphenol-O-methyltransferases); assay: OMT activity in infiltrated tobacco leaves; assay type: in vivo, Nicotiana tabacum; conditions: for stimulation of the OMT activity: 200 mg/l; for OMT activity relative to that obtained with H11-C2: 500 mg/l
Excerpt: Measurement was also made of the OMT activity induced by the compositions based on the fractions H11-C1 and H11-S.
For the measurement of that activity, procedure was as disclosed by Costet L., Dorey S., Fritig B. and Kauffmann S in the publication here above identified and published under the title: • “A pharmacological approach to test the diffusible signal activity of reactive oxygen intermediates in […] tobacco leaves”, in Plant Cell and Physiology (2002) 43; 91-98.
The latter show the stimulation of the OMT activity, expressed in pkat/g FP (i.e. in picokatal per gram of fresh product FP, in other words of fresh vegetable material), by infiltration with water as control (reference C), then with the compositions based on H11-C1 and H11-S, the plants treated being again the varieties NN and Bel3.
The OMT activity has also been measured after infiltration of the varieties NN and Bel3 with the same compositions.
In another line of tests, the varieties NN and Bel3 have been treated with the same inducing compositions presenting respectively the concentrations of 0.5 and then of 5, of 50, of 200 and of 500 mg/l in H11-S and H11-C and the OMT activity in the case of the varieties NN and Bel3 has been analysed.
FIGS. 8 and 9 show the values of stimulation of the OMT activity (expressed in pkat/g FP) respectively in the case of the varieties NN and Bel3.

[4] = system: signalisation pathways of salicic acid and of ethylene; assay: Complementary experiences on signalisation pathways; assay type: in vivo
[5] = system: salicylic acid; assay: Accumulation of total salicylic acid in infiltrated tissues; assay type: in vivo, Nicotiana tabacum; conditions: variety Bel3, tissues sampled 3 days after infiltration (FIG. 5)
Excerpt: as §1, §2

[6] = system: PR proteins (families PR1, PR2, PR3 and PR5, acidic and alkaline isoforms); assay: Expression of PR proteins in infiltrated tobacco leaves by immunodetection; assay type: in vivo, Nicotiana tabacum
Procedure: Concerning the PR proteins, the expression of the acidic and of the alkaline isoforms of 4 families of these proteins, i.e. the families PR1, PR2, PR3 and PR5 has been analysed in the case of tobacco plants of the varieties NN and Bel3 infiltrated with compositions based on the fractions H11-C1 and H11-S at a concentration of 200 mg/l.
The analysis of these proteins has been carried out by immunodetection as disclosed in the publication in the name of Costet L., Dorey S., Fritig B. and Kauffmann S., published under the title: • “A pharmacological approach to test the diffusible signal activity of reactive oxygen intermediates in elicitor-treated tobacco leaves”, in Plant Cell and Physiology (2002) 43; 91-98.
The intensity of the induction appears on the tracks 1 to 8 by way of spots more or less pronounced.
The samples of infiltrated tissues on which the treatments illustrated by track 9 of FIG. 3 were made, were carried out 3 days after the infiltration treatment.
(§3) In another line of tests or experiences, the varieties NN and Bel3 have been treated with inducing compositions presenting respectively the concentrations of 0.5 and then of 5, of 20, of 50, of 200 and of 1,000 mg/l in H11-S and H11-C2 and the expression of the PR1 and PR2 acidic proteins in the case of the said varieties NN and Bel3 have been analysed.
That expression of the acidic PR1 and PR2 proteins is materialised by the intensity of the spots, which appear on the tracks 10, 11, 12, 13, and which are the result of the determination by immunodetection.

[7] = system: tobacco plants of the varieties NN and Bel3; assay: Symptoms of leaf tissues after infiltration into the mesophyl (depigmentation/chlorosis, fluorescence under UV light); assay type: in vivo, Nicotiana tabacum
Procedure: The treatment has been applied on the one hand to the whole plants and on the other hand to cellular suspensions, the varieties of the plants used being: • the variety Nicotiana tabacum cv. Samsun NN designated by NN • the variety Nicotiana tabacum cv. Bel3 designated by Bel3
First, the plants of the varieties NN and Bel 3 as such were treated using aqueous compositions comprising respectively the fractions H11-C1 and H11-S at the concentration of 200 mg/l, which is, as indicated hereabove, the optimum dosis for the elicitor activity of unsulfated glucans.
The treatment consists in the infiltration of the above said aqueous compositions based on the fractions H11-C1 and H11-S into the mesophyl of the leaves of the treated plants.
The infiltration is carried out by piercing tobacco leaves using a needle and by applying then perpendicularly with respect to the plane of the leave a syringe containing the solution to be injected. Immediately after the injection, the infiltration zone, visible by illumination of the leave from its lower face, is delimitated using a felt type pen. The infiltrated zone is designated by ZI.
as §3

[8] = system: agronomically useful plants; assay: Stimulation of natural defence reactions of plants by liquid compositions (general statements); assay type: in vivo; conditions: in practice

For laminarin sulfate [H11-S], the “ratio of the concentrations (H11-C1 at 200 mg/l versus H11-S) giving the same accumulation of scopoletin” value [1] was at most 30, the “alkalinisation of the medium” value [2] was 0.3 pH units and the “stimulation of the OMT activity” value ([3]; varieties NN and Bel3, compared among C, H11-C1, H11-C2, H11-C3, H11-S, H16 (FIG. 4)) was “clearly better”. The “stimulation of the OMT activity” value ([3]; variety Bel3, H11-S versus H11-C1 (FIG. 2)) was “clearly more intense”, the “stimulation of the OMT activity” value ([3]; variety NN, H11-S versus H11-C1 (FIG. 2)) was “similar” and the “increase of OMT activity as a function of the concentration” value ([3]; 0.5, 5, 50, 200 and 500 mg/l, varieties NN and Bel3 (FIGS. 8 and 9)) was “much faster”. For the same substance, the “OMT activity relative to that obtained with H11-C2” value ([3]; variety Bel3) was “about ten”, the “OMT activity relative to that obtained with H11-C2” value ([3]; variety NN) was “about four” and the “factor by which the concentration can be lower than that of H11-C1, H11-C2 and H11-C3 for a comparable OMT result” value ([3]; conclusion from FIG. 4) was “eight”. The “dosis at which the maximum response of OMT activity is reached” value ([3]; varieties NN and Bel3) was 500 mg/L, the “factor by which the concentration can be lower for OMT stimulation equal to H11-C1 at 200 mg/l” value ([3]; variety Bel3, forecast from FIG. 2) was 8 to 9 times and the “induction of signalisation pathways” value [4] was “induce the signalisation pathways of salicic acid and of ethylene”. The “ratio of the concentrations (H11-C1 at 200 mg/l versus H11-S) giving the same accumulation of salicylic acid” value [5] was at most 30, the “expression of acidic and alkaline isoforms of PR1, PR2, PR3 and PR5 proteins” value ([6]; 200 mg/l, varieties NN and Bel3, H11-S compared with H11-C1 (FIG. 1)) was “more important; also recorded: stronger” and the “expression of the acidic PR1 protein” value ([6]; 200 mg/l, varieties NN and Bel3, tissues sampled 3 days after infiltration (FIG. 3)) was “highest expression”. For the same substance, the “concentration from which acidic PR1 and PR2 proteins are detected” value ([6]; immunodetection, concentration series 0.5 to 1,000 mg/l, varieties NN and Bel3 (FIG. 7)) was 5 to 20 mg/L, the “dosis at which the maximum response of expression of the PR proteins is reached” value ([6]; varieties NN and Bel3) was 500 mg/L and the “fluorescence under U.V. light at the level of infiltrated tissues” value ([7]; 200 mg/l, infiltrated tissues) was “a blue fluorescence under U.V. light is observed”. For the same substance, the “symptoms of chlorosis as a function of concentration” value ([7]; 0.5, 5, 20, 50, 200 and 1,000 mg/l, varieties NN and Bel3) was “the more the symptoms of chlorosis are severe”, the “symptoms of the infiltrated tissues” value ([7]; aqueous composition 200 mg/l infiltrated into leaf mesophyl, varieties NN and Bel3) was “present a depigmentation” and the “dose at which first symptoms of fluorescence under UV light are obtained” value ([7]; concentration series 0.5 to 1,000 mg/l) was 50 mg/L. The “concentration above which no better result is provided” value [8] was “higher than 500 mg/l”.
